From ChEMBL document CHEMBL1201862, “PubChem BioAssay data set” (2004)
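Protocol summary: plate cells (96-well), add compound at 5 concentrations, incubate 48 h, interpolate endpoints linearly. The concentration for 50% growth inhibition is given as GI50.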 Active and inactive are the calls of the source. No stated cut-off is given here; in the data, active = GI50 up to about 1.1 µM and inactive = higher.

Experiments:
Experiment in all cases: NCI-60 cell line screen, 48 h
786-0 = tested on: 786-0
A549 = tested on: A549
DLD-1 = tested on: DLD-1
HOP-92 = tested on: HOP-92
M14 = tested on: M14
MOLT-4 = tested on: MOLT-4
Malme-3M = tested on: Malme-3M
NCI-H226 = tested on: NCI-H226
NCI-H460 = tested on: NCI-H460
OVCAR-4 = tested on: OVCAR-4
SF-268 = tested on: SF-268
SF-539 = tested on: SF-539
SK-MEL-28 = tested on: SK-MEL-28
SK-MEL-5 = tested on: SK-MEL-5
SN12C = tested on: SN12C
SW-620 = tested on: SW-620
TK-10 = tested on: TK-10
UO-31 = tested on: UO-31
Hs-578T = tested on: Hs-578T
MDA-MB-435 = tested on: MDA-MB-435

Measured: GI50

CC(=O)O[C@H]1CCC2[C@@H]3CCC4C(=O)c5oncc5C[C@]4(C)C3CC[C@@]21C (some centres not stated)
inactive: 786-0 > 100 µM | A549 > 100 µM | DLD-1 > 100 µM | HOP-92 > 100 µM | M14 > 100 µM | MOLT-4 > 100 µM | Malme-3M > 100 µM | NCI-H226 > 10 µM | NCI-H460 > 100 µM | OVCAR-4 5.21 µM | SF-268 > 100 µM | SF-539 > 10 µM | SK-MEL-28 > 100 µM | SK-MEL-5 > 100 µM | SN12C > 100 µM | SW-620 > 100 µM | TK-10 > 100 µM | UO-31 > 10 µM

OCCCc1cnco1
inactive: 786-0 > 100 µM | A549 > 100 µM | DLD-1 > 100 µM | HOP-92 > 100 µM | M14 > 100 µM | MOLT-4 > 100 µM | Malme-3M > 100 µM | NCI-H226 > 100 µM | NCI-H460 > 100 µM | OVCAR-4 > 100 µM | SF-268 > 100 µM | SF-539 > 100 µM | SK-MEL-28 > 100 µM | SK-MEL-5 > 100 µM | SN12C > 100 µM | SW-620 > 100 µM | TK-10 > 100 µM | UO-31 > 100 µM

CC(=O)NC(CCCCNC(=O)OCc1ccccc1)C(=O)NCc1ccccc1 (configuration not stated)
inactive: 786-0 > 100 µM | A549 > 100 µM | DLD-1 > 100 µM | HOP-92 > 100 µM | M14 > 100 µM | MOLT-4 > 100 µM | Malme-3M > 100 µM | NCI-H226 > 100 µM | NCI-H460 > 100 µM | OVCAR-4 > 100 µM | SF-268 > 100 µM | SF-539 > 100 µM | SK-MEL-28 > 100 µM | SK-MEL-5 > 100 µM | SN12C > 100 µM | SW-620 > 100 µM | TK-10 > 100 µM | UO-31 > 100 µM

COc1ccc(C(=O)O/N=C2/CCC/C2=C\c2ccccc2)cc1
inactive: 786-0 > 72.3 µM | A549 > 100 µM | DLD-1 > 100 µM | HOP-92 > 100 µM | M14 > 100 µM | MOLT-4 > 100 µM | Malme-3M > 100 µM | NCI-H226 > 100 µM | NCI-H460 > 100 µM | OVCAR-4 > 66.1 µM | SF-268 > 81.8 µM | SF-539 > 59.3 µM | SK-MEL-28 > 100 µM | SK-MEL-5 > 100 µM | SN12C > 100 µM | SW-620 > 100 µM | TK-10 > 91.6 µM | UO-31 > 100 µM

Nc1ccc(C(=O)NN2C(=O)C(Cl)C2c2ccccc2)cc1 (configuration not stated)
inactive: 786-0 > 100 µM | A549 > 100 µM | DLD-1 > 100 µM | HOP-92 > 100 µM | M14 > 100 µM | MOLT-4 > 100 µM | Malme-3M > 100 µM | NCI-H226 > 100 µM | NCI-H460 > 100 µM | OVCAR-4 > 100 µM | SF-268 > 100 µM | SF-539 > 100 µM | SK-MEL-28 > 100 µM | SK-MEL-5 > 100 µM | SN12C > 100 µM | SW-620 > 100 µM | TK-10 > 100 µM | UO-31 > 100 µM

COc1cc(/C=C2/C(=O)N(C(=O)OCc3ccccc3)C(Cc3cc(OC)c(OC)c(C)c3OC)C(=O)N2Cc2ccccc2)c(OC)c(C)c1OC (configuration not stated)
inactive: 786-0 > 100 µM | A549 > 100 µM | DLD-1 > 100 µM | HOP-92 2.64 µM | M14 > 100 µM | MOLT-4 8.09 µM | Malme-3M 76.4 µM | NCI-H226 2 µM | NCI-H460 3.52 µM | OVCAR-4 > 100 µM | SF-268 > 100 µM | SF-539 > 100 µM | SK-MEL-28 > 100 µM | SK-MEL-5 19.4 µM | SN12C > 100 µM | SW-620 > 100 µM | TK-10 > 100 µM | UO-31 > 100 µM

Oc1ncc(N(CCCl)CCCl)c(O)n1 [URACIL MUSTARD]
inactive: 786-0 10 µM | A549 23.3 µM | DLD-1 78.3 µM | HOP-92 23.8 µM | Hs-578T 91 µM | M14 20.7 µM | MDA-MB-435 64 µM | MOLT-4 1.59 µM | Malme-3M 32.8 µM | NCI-H226 48.2 µM | NCI-H460 3.48 µM | OVCAR-4 83 µM | SF-268 12.7 µM | SF-539 11.7 µM | SK-MEL-28 67.8 µM | SK-MEL-5 41.8 µM | SN12C 8.65 µM | SW-620 35.3 µM | TK-10 110 µM | UO-31 47.3 µM

CS/C(=N/C(=O)c1ccccc1)SCCS/C(=N\C(=O)c1ccccc1)SC
inactive: 786-0 > 100 µM | A549 > 100 µM | DLD-1 > 100 µM | HOP-92 20 µM | M14 > 100 µM | MOLT-4 > 100 µM | Malme-3M > 100 µM | NCI-H226 > 100 µM | NCI-H460 > 100 µM | OVCAR-4 25 µM | SF-268 > 100 µM | SF-539 65.5 µM | SK-MEL-28 > 100 µM | SK-MEL-5 > 100 µM | SN12C > 100 µM | SW-620 > 100 µM | TK-10 > 100 µM | UO-31 > 100 µM

CC(C)c1cccc(C(C)C)c1N1C(=O)C(=O)C(c2nc3ccccc3o2)C(=O)C1=O
inactive: 786-0 14.4 µM | A549 > 100 µM | DLD-1 31.6 µM | HOP-92 33.3 µM | M14 55.8 µM | Malme-3M 91.4 µM | NCI-H226 19.2 µM | NCI-H460 > 100 µM | OVCAR-4 78.2 µM | SF-268 47.2 µM | SF-539 > 100 µM | SK-MEL-28 32.7 µM | SK-MEL-5 38.5 µM | SN12C > 100 µM | SW-620 48.1 µM | TK-10 > 100 µM | UO-31 94 µM

CCSc1nc(-c2ccc(OC)cc2)c(C#N)c(=O)n1C1OCC(OC(C)=O)C(OC(C)=O)C1OC(C)=O (configuration not stated)
inactive: 786-0 > 100 µM | A549 > 100 µM | DLD-1 > 100 µM | HOP-92 > 100 µM | M14 > 100 µM | MOLT-4 43.5 µM | Malme-3M > 100 µM | NCI-H226 > 100 µM | NCI-H460 > 100 µM | OVCAR-4 > 100 µM | SF-268 > 100 µM | SF-539 > 100 µM | SK-MEL-28 > 100 µM | SK-MEL-5 93.3 µM | SN12C > 100 µM | SW-620 > 100 µM | TK-10 > 100 µM | UO-31 > 100 µM

C/C(C=O)=C1\C(O)C[C@]1(C)C1CC(C)(C)CC1O (some centres not stated)
inactive: 786-0 > 100 µM | A549 > 100 µM | DLD-1 > 100 µM | HOP-92 74.1 µM | M14 47.3 µM | MOLT-4 35.7 µM | Malme-3M > 100 µM | NCI-H226 > 100 µM | NCI-H460 > 100 µM | OVCAR-4 35.7 µM | SF-268 > 100 µM | SF-539 49.1 µM | SK-MEL-28 > 100 µM | SK-MEL-5 > 100 µM | SN12C > 100 µM | SW-620 > 100 µM | TK-10 > 100 µM | UO-31 > 100 µM

CCOC(=O)/C(=C\c1ccc(O)c(OC)c1)C(=O)c1ccccc1
inactive: 786-0 16.7 µM | A549 18.2 µM | DLD-1 17.8 µM | HOP-92 21.3 µM | M14 19.1 µM | MOLT-4 12.4 µM | Malme-3M 18.6 µM | NCI-H226 23.2 µM | NCI-H460 22.2 µM | OVCAR-4 13.9 µM | SF-268 9.62 µM | SF-539 13.8 µM | SK-MEL-28 9.75 µM | SK-MEL-5 13.3 µM | SN12C 11.1 µM | SW-620 13.1 µM | TK-10 25.9 µM | UO-31 23 µM
